In the OPERA property sets (Mansouri et al. 2018):

Settings: for log10 BCF / log10 biotransformation half-life (days): fish

Structure (SMILES)	boiling point [°C]	melting point [°C]	other results
COC(=O)c1ccccc1	199	-15	log10 Koc (L/kg): 2.1; log10 vapour pressure (mmHg): -0.42
C[Si](C)(Cl)Cl	70.3	–	log10 vapour pressure (mmHg): 2.16
Cc1cccnc1C	161	–	log10 Henry constant (atm·m³/mol): -5.14; log10 vapour pressure (mmHg): 0.43
COC(=O)CC[N+](=O)[O-]	–	–	ready biodegradability: readily biodegradable
Cc1c[nH]c(=O)[nH]c1=O	–	316	–
O=[N+]([O-])c1ccccc1C(F)(F)F	217	32.5	–
CSCc1ccccc1	210	-30	–
O=C(Nc1ccc(Cl)c(Cl)c1)c1cc(Cl)ccc1O	–	247	–
COc1ccccc1C	171	-34.1	–
NC(=O)C(CCN1CCCCCC1)(c1ccccc1)c1ccccc1	–	142	–
CCOC(=O)c1cnn(C)c1S(=O)(=O)NC(=O)Nc1nc(OC)cc(OC)n1	–	182	–
CCCCCC[Si](O)(CCCCCC)CCCCCC	–	–	log10 BCF: 2.7; log10 biotransformation half-life (days): 0.04
O=C=Nc1cccc([N+](=O)[O-])c1	–	51	–
CCCCCC#CC(=O)OC	218	–	–
Nc1nncs1	–	191	–
CCCCC(CC)C(=O)OCC(COC(=O)C(CC)CCCC)(COC(=O)C(CC)CCCC)COC(=O)C(CC)CCCC (stereo unspecified)	–	–	ready biodegradability: not readily biodegradable
CCCOC(=O)OCCC	168	–	–
Cc1nc2ccccc2nc1C	–	105	–
CCOc1ccc(C#N)cc1	258	61.5	–
CCN(CC)c1ccc2c(-c3ccccc3C(=O)O)c3ccc(N(CC)CC)cc3[o+]c2c1.[Cl-]	–	165	–
CC(=O)O[C@]1(C(C)=O)CC[C@H]2[C@@H]3C[C@H](C)C4=CC(=O)C=C[C@]4(C)[C@@]3(F)[C@@H](O)C[C@@]21C	–	298	–
OCC(F)(F)C(F)(F)F	82	–	log10 Henry constant (atm·m³/mol): -4.65; log10 vapour pressure (mmHg): 1.66
CCc1nc(C)cnc1C	180	–	–

Structure (SMILES)	boiling point [°C]	melting point [°C]	other results
Clc1cc(Cl)cc(-c2ccccc2)c1	–	–	log10 BCF: 3.77; log10 biotransformation half-life (days): 1.11
Cc1cc(C)nc(N)n1	–	152	–
OCCC(O)CO (stereo unspecified)	312	–	–
CCC(Br)CC	119	-126	–
CCN(CC)CCNc1ccc(C)c2sc3ccccc3c(=O)c12.Cl	–	196	–
CC(Cl)[N+](=O)[O-] (stereo unspecified)	124	–	–
CN1CC[C@]23C(=O)C[C@H]4C(=CCO[C@H]5CC(=O)N(c6c(O)cccc62)[C@H]3[C@H]54)C1	–	282	–
Clc1ccncc1	148	-43.5	–
CCC=NO	132	40	–
O=C=C=C=O	6.8	-107	–
Oc1ccc(Br)c(O)c1	–	103	–
CC(C(O)c1ccccc1)N(C)C/C=C/c1ccccc1 (stereo unspecified)	–	75	–
CCNC	36.5	–	–
C=C[Si](C)(Cl)Cl	92.5	–	–
CCCN=C=O	83.5	–	–
CN1CC1	27.5	–	–
Fc1ccccc1I	189	-41.5	–
Oc1ccc(NCc2ccccc2)cc1	–	88	–
CCOC(=O)C1N=C(c2ccccc2F)c2cc(Cl)ccc2NC1=O (stereo unspecified)	–	194	–
CCCC(=O)CCC	144	-33	log10 vapour pressure (mmHg): 0.787
NC(=O)OCC(Cl)(Cl)Cl	–	64	–
CC(C)C=O	64.5	-65.9	log10 vapour pressure (mmHg): 2.24; ready biodegradability: readily biodegradable
CC(=O)OCCBr	162	-13.8	–

Structure (SMILES)	boiling point [°C]	melting point [°C]	other results
Nc1ccc(Nc2ccccc2)cc1	354	66	log10 vapour pressure (mmHg): -4.92
CC(C)C(O)CO (stereo unspecified)	206	–	–
Clc1ccc(-c2cc(Cl)c(Cl)cc2Cl)c(Cl)c1	–	–	log10 Henry constant (atm·m³/mol): -4.11; log10 vapour pressure (mmHg): -4.66; log10 biotransformation half-life (days): 2.73
Clc1ccc(C(Cl)Cl)c(Cl)c1Cl	278	84	–
CCO/N=C(\OC(=O)c1ccccc1)c1c(OC)ccc(Cl)c1OC	–	73	–
CCOC(=O)C(C)(C)Br	163	–	log10 vapour pressure (mmHg): 0.417
O=C(OCc1ccccc1)c1sc(Cl)nc1C(F)(F)F	–	52	log10 vapour pressure (mmHg): -6.53
O=[N+]([O-])c1ccc2[nH]ccc2c1	–	141	–
C=CC1CCC(O)C(O)C1 (stereo unspecified)	–	–	ready biodegradability: not readily biodegradable
Cc1ncc(CO)c(C(=O)O)c1O	–	248	–
CC(=O)CCCCBr	216	–	–
CC(C(=O)O)c1ccc(N2CC=CC2)c(Cl)c1 (stereo unspecified)	–	99	–
CCCCCCCCCCCCC#N	293	9.7	–
CCC=CBr	99	–	log10 vapour pressure (mmHg): 1.89
c1cc2c3c(c1)ccc1cccc(c13)C2	353	114	–
O=C(Nc1ccc(F)cc1F)c1cccnc1Oc1cccc(C(F)(F)F)c1	–	160	log10 Henry constant (atm·m³/mol): -6.49; log10 vapour pressure (mmHg): -7.5
CNC(=O)N(C)C	232	75.5	–
CCNc1nc(Cl)nc(NCC(=O)OCC)n1	–	228	–
C[C@H](CC(=O)O)[C@H]1CC[C@H]2[C@@H]3CC[C@@H]4CCCC[C@]4(C)[C@H]3CC[C@]12C	–	177	–
Clc1ccc(Cl)c(-c2c(Cl)cccc2Cl)c1Cl	–	–	log10 Koa: 8.53
C=CCN(CC=C)C(=O)COC(=O)c1ccccc1	–	42.5	–
COc1cc2ccc(=O)oc2c(O)c1O	–	231	–
